In test [1] the test system is MDA-MB-231. In words: Anticancer activity against human MDA-MB-231 cells assessed as reduction in cell viability measured after 72 hrs by MTT assay. It counts as functional.
The nature of test [2]: Inhibition of Streptococcus sobrinus glycosyl transferase.
Test [3] relates to MCF7. Nature of the test: Antiproliferative activity against human MCF7 cells assessed as reduction in cell viability incubated for 72 hrs by MTT assay. In kind it is functional, cell-based. As to conditions: MCF7, 72 h. Background: Formazan colour is commonly taken as a measure of viable cells.
The subject of the next test is LNCaP. In words: Antiproliferative activity against human LNCaP assessed as reduction in cell viability incubated for 72 hrs by MTT assay. It counts as functional, cell-based.
A further test deals with U-266. In words: Anticancer activity against human U-266 cells assessed as inhibition of cell growth. It counts as functional, cell-based.
The subject of the next test is ZR-75-1. Nature of the test: Cytotoxicity against human ZR-75-1 cells assessed as reduction in cell viability incubated for 24 hrs by MTT assay. In kind it is functional, cell-based. The note with it: ZR-75-1, 24 h.
Test [4] deals with HCT-116. In words: Cytotoxicity against human HCT-116 cells assessed as reduction in cell growth measured after 24 hrs by MTT assay. In kind it is functional, cell-based. As to conditions: HCT-116, 24 h.
For the next test, the system named is PANC-1. Nature of the test: Cytotoxicity against human PANC-1 cells assessed as reduction in cell viability measured after 24 hrs by MTT assay. The note with it: PANC-1, 24 h. In kind it is functional, cell-based.
In test [5] the test system is SK-BR-3. Nature of the test: Antiproliferative activity against human SK-BR-3 cells assessed as inhibition of cell proliferation incubated for 3 days by sulforhodamine B colorimetric assay. In kind it is functional, cell-based. The note with it: SK-BR-3, 72 h.
Test [6] concerns MCF7. In words: Cytotoxicity against human MCF7 cells assessed as reduction in cell growth incubated for 24 hrs by MTT assay. The note with it: MCF7, 24 h. In kind it is functional, cell-based.
A further test relates to A-431. In words: Cytotoxicity against human A-431 cells assessed as reduction in cell growth measured after 24 hrs by MTT assay. It counts as functional, cell-based. As to conditions: A-431, 24 h.
The subject of the next test is NCI-H460. In words: Cytotoxicity against human NCI-H460 cells assessed as reduction in cell viability incubated for 24 hrs by MTT assay. As to conditions: NCI-H460, 24 h. In kind it is functional, cell-based.
Another test deals with SK-OV-3. Nature of the test: Cytotoxicity against human SK-OV-3 cells assessed as reduction in cell growth measured after 24 hrs by MTT assay. It counts as functional, cell-based. As to conditions: SK-OV-3, 24 h.
Test [7] concerns MDA-MB-231. In words: Cytotoxicity against human MDA-MB-231 cells assessed as cell growth inhibition incubated for 48 hrs by SRB assay. In kind it is functional, cell-based. As to conditions: MDA-MB-231, 48 h. (In general: The SRB assay estimates cell density from bound dye.)
In test [8] the test system is MDA-MB-231. In words: Cytotoxicity against human MDA-MB-231 cells assessed as reduction in cell viability incubated for 24 hrs by MTT assay. As to conditions: MDA-MB-231, 24 h. In kind it is functional, cell-based.
For test [9], the system named is SK-BR-3. Nature of the test: Cytotoxicity against human SK-BR-3 cells assessed as reduction in cell growth incubated for 24 hrs by MTT assay. It counts as functional, cell-based. As to conditions: SK-BR-3, 24 h.
The test system of the next test is Jurkat. Nature of the test: Antiproliferative activity against human Jurkat T cells assessed as inhibition of cell growth at 50 uM incubated for 24 hrs relative to control. It counts as functional. The arrangement: scale not given: the % may be the effect or the level left.
The subject of test [10] is HCT-116. Nature of the test: Antiproliferative activity against human HCT-116 cells assessed as reduction in cell viability incubated for 24 hrs by MTT assay. In kind it is functional, cell-based. As to conditions: HCT-116, 24 h.
Test [11] can be described thus: Antiproliferative activity against human NCI-H1781 cells expressing wild type EGFR assessed as reduction in cell viability incubated for 48 hrs by MTT assay. In kind it is functional, cell-based. As to conditions: NCI-H1781, 48 h.
In a further test the test system is NCI-H292. In words: Antiproliferative activity against human NCI-H292 cells expressing wild type EGFR assessed as reduction in cell viability incubated for 48 hrs by MTT assay. The note with it: NCI-H292, 48 h. In kind it is functional, cell-based.
The test system of test [12] is NCI-H441. In words: Antiproliferative activity against human NCI-H441 cells expressing wild type EGFR assessed as reduction in cell viability incubated for 48 hrs by MTT assay. In kind it is functional, cell-based. As to conditions: NCI-H441, 48 h.
The next test has as its system A549. In words: Antiproliferative activity against human A549 cells expressing wild type EGFR assessed as reduction in cell viability incubated for 48 hrs by MTT assay. It counts as functional, cell-based. The note with it: A549, 48 h.
For a further test, the system named is HCC827. Nature of the test: Antiproliferative activity against human HCC827 cells assessed as reduction in cell viability incubated for 72 hrs by MTT assay. In kind it is functional, cell-based. The note with it: HCC827, 72 h.
Another test concerns NSCLC. In words: Antiproliferative activity against human NSCLC cells assessed as cell growth inhibition incubated for 72 hrs by MTT assay. It counts as functional, cell-based.
Test [13] has as its system NCI-H441. Nature of the test: Antiproliferative activity against human NCI-H441 cells assessed as reduction in cell viability incubated for 48 hrs by WST-8 assay. In kind it is functional, cell-based. As to conditions: NCI-H441, 48 h.
Test [14] concerns MDA-MB-231. In words: Cytotoxicity against human MDA-MB-231 cells assessed as reduction in cell viability measured after 24 hrs by MTT assay. As to conditions: MDA-MB-231, 24 h.

In the case of `CC(=O)Oc1cc(OC(C)=O)c2c(c1)O[C@H](c1cc(OC(C)=O)c(OC(C)=O)c(OC(C)=O)c1)[C@H](OC(=O)c1cccc(F)c1)C2`, the Activity with MDA-MB-231 [1] turned out to be 70%.
Consider `O=c1c(O)cc([C@H]2Oc3cc(O)cc(O)c3C[C@H]2O)cc2cc(O)c(O)c(O)c12`, for which the IC50 in [2] came to 14 µM.
For `COc1cccc(C(=O)O[C@H]2COc3cc(OC)cc(OC)c3C2)c1`, the IC50 in the test with MCF7 [3] came out at 0.77 µM.
As for `O=C(O[C@@H]1Cc2c(O)cc(O)cc2O[C@@H]1c1ccc(O)c(O)c1)c1cc(O)c(O)c(O)c1` [EPICATECHIN GALLATE], in the test on LNCaP, the IC50 stood at 36 µM.
Consider `COc1cc([C@H]2Oc3cccc(OC)c3C[C@H]2OC(=O)c2cc(O)c(O)c(O)c2)cc(O)c1O`, for which, in the test with U-266, the 50% inhibitory concentration (IC50) worked out at 0.8 µM.
Regarding `O=C(Oc1ccc(-c2ccc(OC(=O)c3cc(O)c(O)c(O)c3)cc2)cc1)c1cc(O)c(O)c(O)c1`, the half-inhibitory concentration (IC50) with ZR-75-1 came to 2 µM; in the test with HCT-116 [4], 10 µM; with PANC-1 it was 10 µM; with SK-BR-3 [5] it was 10 µM; in the test with MCF7 [6] it was 10 µM; with A-431, 10 µM. For the same molecule, the IC50 in the test with NCI-H460 was found to be 10 µM; in the test with SK-OV-3 it was 10 µM; with MDA-MB-231 [7], 45 µM; in the test on MDA-MB-231 [8] it was 2 µM; in the test on SK-BR-3 [9], 2 µM.
As to `CC(=O)Oc1cc(OC(C)=O)c2c(c1)O[C@H](c1cc(OC(C)=O)c(OC(C)=O)c(OC(C)=O)c1)[C@H](OC(=O)c1ccc(F)c(F)c1)C2`, the Activity worked out at 33% in the test on MDA-MB-231 [1] and 90% in the test with Jurkat.
As for `O=C(O[C@@H]1Cc2c(F)cc(F)cc2O[C@@H]1c1ccc(O)c(O)c1)c1cc(O)c(O)c(O)c1`, in the test on LNCaP, the half-maximal inhibitory concentration (IC50) worked out at 13 µM.
With `O=C(O[C@@H]1Cc2c(O)cc(O)cc2O[C@@H]1c1cc(O)c(=O)c2c(O)c(O)cc([C@H]3Oc4cc(O)cc(O)c4C[C@H]3OC(=O)c3cc(O)c(O)c(O)c3)c2c1)c1cc(O)c(O)c(O)c1` [THEAFLAVIN DIGALLATE], in the test on HCT-116 [10], the IC50 worked out at 120 µM.
As to `O=C(O[C@@H]1Cc2c(O)cc(O)cc2O[C@@H]1c1cc(O)c(O)c(O)c1)c1cc(O)c(OCc2cn([C@H]3O[C@H](CO)[C@@H](O)[C@H](O)[C@H]3O)nn2)c(O)c1`, the IC50 (in test [11]; in the test with NCI-H292; in the test on NCI-H441 [12]; with A549) was 30 µM throughout.
As to `COc1ccc2c(c1)O[C@H](c1cc(OC)c(O)c(OC)c1)[C@H](OC(=O)c1cc(O)c(O)c(O)c1)C2`, the IC50 with U-266 stood at 0.64 µM.
Regarding `COC(=O)c1c(O)cc2c(c1O)C[C@@H](OC(=O)c1cc(O)c(O)c(O)c1)[C@@H](c1cc(O)c(O)c(O)c1)O2`, the half-inhibitory concentration (IC50) in the test on HCC827 and in the test on NSCLC was roughly 20 µM each time.
In the case of `O=C(O[C@@H]1Cc2c(OCc3cnnn3[C@H]3O[C@H](CO)[C@@H](O)[C@H](O)[C@H]3O)cc(O)cc2O[C@@H]1c1cc(O)c(O)c(O)c1)c1cc(O)c(O)c(O)c1`, the IC50 with NCI-H441 [13] came out at 100 µM; in the test on A549 it was 30 µM.
For `O=C(Oc1cc(O)cc2ccccc12)c1cc(O)c(O)c(O)c1`, the concentration for half-maximal inhibition (IC50) in the test with MDA-MB-231 [7] worked out at 79 µM.
On to `CC(=O)Oc1cc(OC(C)=O)c2c(c1)O[C@H](c1cc(OC(C)=O)c(OC(C)=O)c(OC(C)=O)c1)[C@H](OC(=O)c1cc(OC(C)=O)c(OC(C)OC(=O)OC(C)C)c(OC(C)=O)c1)C2` (stereo partly specified), for which the CC50 in the test with MDA-MB-231 [14] worked out at 53.9 µM.

For orientation: IC50 means the midpoint of a concentration-inhibition curve. Broadly, the CC50 is the concentration that lowers cell viability or growth by half.

The values above are taken from ChEMBL document CHEMBL5335789, “Tea-break with epigallocatechin gallate derivatives - Powerful polyphenols of great potential for medicine” (Eur J Med Chem, 2023).
